Results published in publication PMC9916658, “Design and Synthesis of New Quinazolin-4-one Derivatives with Negative mGlu7 Receptor Modulation Activity and Antipsychotic-Like Properties” (International Journal of Molecular Sciences, 2023).

Experiments:
[1] = molecular target: T1, recombinant human mGlu7 receptor (Homo sapiens, UniProt Q14831); test: NAM mGlu7 activity, forskolin-induced cAMP (HTRF) in T-REx 293 cell line; type: cell-based; conditions: forskolin-stimulated cAMP response, 5 µM LSP4-2022 (EC80), T-REx 293 human mGlu7; for inhibition at 10 µM: T-REx-293, 10 μM compound
T1 construct: expressed in transfected cells; host or cells: T-REx 293 (tetracycline-inducible)
T1 sequence (Q14831 35-915): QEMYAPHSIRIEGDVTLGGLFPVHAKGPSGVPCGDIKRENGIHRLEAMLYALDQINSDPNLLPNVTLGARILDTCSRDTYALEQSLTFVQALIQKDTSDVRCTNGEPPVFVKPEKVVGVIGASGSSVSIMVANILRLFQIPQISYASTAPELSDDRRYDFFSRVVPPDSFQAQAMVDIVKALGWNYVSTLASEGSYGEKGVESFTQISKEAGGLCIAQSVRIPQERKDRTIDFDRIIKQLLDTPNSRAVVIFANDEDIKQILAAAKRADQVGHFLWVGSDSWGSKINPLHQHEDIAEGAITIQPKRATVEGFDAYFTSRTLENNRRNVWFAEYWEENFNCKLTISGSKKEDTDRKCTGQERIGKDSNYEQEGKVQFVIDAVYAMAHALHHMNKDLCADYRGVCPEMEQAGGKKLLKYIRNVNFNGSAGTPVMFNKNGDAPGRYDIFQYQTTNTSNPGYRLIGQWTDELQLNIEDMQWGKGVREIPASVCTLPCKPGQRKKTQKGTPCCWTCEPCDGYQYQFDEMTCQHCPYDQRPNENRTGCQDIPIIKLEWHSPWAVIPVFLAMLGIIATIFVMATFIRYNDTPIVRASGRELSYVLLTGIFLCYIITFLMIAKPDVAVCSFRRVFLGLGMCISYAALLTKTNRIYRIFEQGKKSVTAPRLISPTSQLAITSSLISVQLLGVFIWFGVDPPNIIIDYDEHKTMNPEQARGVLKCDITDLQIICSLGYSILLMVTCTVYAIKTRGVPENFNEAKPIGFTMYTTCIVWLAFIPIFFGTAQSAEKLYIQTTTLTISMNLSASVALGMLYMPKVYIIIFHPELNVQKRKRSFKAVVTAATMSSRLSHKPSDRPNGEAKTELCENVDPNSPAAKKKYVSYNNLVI
Description: The cell lines with the tetracycline-inducible expression of human metabotropic receptors 4, 7, and 8 were described in detail by Chruścicka et al. (mGlu4 receptor NM_000841, mGlu7 receptor NM_000844.2, and mGlu8 receptor NM_000845). Cells were grown under standard cell culture conditions (37 °C, 5% CO2) in DMEM supplemented with 10% tetracycline-free FBS. The expression was induced through the addition of tetracycline to the culture medium at 0.75 μg/mL.
The determination of the intracellular cAMP through homogeneous time-resolved fluorescence (HTRF) was described in detail previously. Briefly, 48 h before the experiments, the expression of the receptor was induced through the addition of tetracycline to the culture medium; the next day, FBS and L-Glu were removed from the medium. Just before the cAMP measurement, the cells were detached and centrifuged. Then, the cell suspension in Hanks-HEPES (130 mM NaCl, 5.4 mM KCl, 1.8 mM CaCl2, 0.8 mM MgSO4, 0.9 mM NaH2PO4, 20 mM HEPES, and 3.25 mM glucose; pH 7.4) was incubated in the presence of 10 µM forskolin (mGlu7 receptor, 3 µM forskolin), the agonist LSP4-2022 or L-Glu (for mGlu4 and mGlu8), and a compound for 5 min. The intracellular concentration of cyclic AMP was measured by means of a cAMP Gi HTRF kit from Cisbio, according to the manufacturer’s instructions. After 1 h of incubation at room temperature, the fluorescence at 620 nm and 665 nm was read (Tecan Infinite M1000). The results were calculated as the 665 nm/620 nm ratio multiplied by 10^4. Each sample was prepared in triplicate. Data were analyzed using GraphPad Prism version 5.04 for Windows (GraphPad Software, San Diego, USA).
The activity of the compounds was examined in the T-REx 293-cell-line-expressing recombinant human mGlu7 receptor by detecting the level of cyclic AMP in the presence of 5 µM forskolin [7, 41]. […] The substances were incubated with 5 µM LSP4-2022 (EC80).
Firstly, all compounds were screened at 10 μM using three cell lines expressing the mGlu4/7/8 receptor to evaluate selectivity. For the mGlu4 and mGlu8 receptors, glutamic acid was used as an agonist and had good potency. […] VU0155041 and AZ12216052 were used as reference compounds for the mGlu4 and mGlu8 receptors, respectively. The parameter described as “% of inhibition” was introduced to compare the bioactivity of the new compounds to the reference NAM at a 10 μM concentration in the presence of 5 μM LSP4-2022 (0%) and 3 μM forskolin (100%). […] For compounds that passed the screening procedure, the dose–response curve in the presence of LSP4-2022 in 5 μM was evaluated compared to reference NAM ADX71743. Only compounds ALX-063, ALX-065, and ALX-171 (Figure S3, Supplementary Materials) met our conditions regarding bioactivity. All of them were further investigated to determine the EC50 and receptor selectivity. […]
2.1. NAM mGlu7 receptor activity on T-Rex 293 cell line
The activity of compounds was examined on T-REx 293 cell line expressing recombinant human mGlu7 receptor by detecting the level of cyclic AMP in the presence of 5 µM forskolin [14,15]. The cell line was […]
incubated with 5 µM of LSP4-2022 (EC80).

[2] = molecular target: T2, recombinant human mGlu7 receptor (FAST-0154C) (Homo sapiens, UniProt Q14831); test: NAM mGlu7 activity on CHO-K1 cell line, cAMP HTRF (EuroscreenFast protocol); type: cell-based; conditions: CHO-K1 human mGlu7, agonist L-AP4 at EC80; for % inhibition at maximal concentration: range 1 nM – 25 µM; for IC50: read-out: IC50 (CHO-K1, Figure S4)
T2 construct: host or cells: CHO-K1
T2 sequence (Q14831 35-915): as above
Text: with inducible expression of human mGlu7 receptor. […]
2.2. NAM mGlu7 receptor activity on CHO-K1 cell line according to EuroscreenFast protocol
ALX-065 and ALX-171 were testing for negative allosteric modulator (NAM) activity on alternative […]
mGlu7 cell line (recombinant human mGlu7 receptor (FAST-0154C) using cAMP HTRF functional assay) […]
by EuroscreenFast company according to the provided methodology.
Receptor Accession Cell line Reference Reference
Number agonist antagonist
Compounds were tested for NAM activity at the human mGlu7 receptor (FAST-0154C) in dose […]
response and in duplicates (range concentration: 1 nM – 25 µM) […]
cAMP HTRF assay for Gi coupled receptor
CHO-K1 cells expressing recombinant human mGlu7 receptor (FAST-0154C) grown prior to the test […]
inmedia without antibiotic are detached by gentle flushing with PBS-EDTA (5 mM EDTA), recovered […]
by centrifugation and resuspended in assay buffer (KRH: 5 mM KCl, 1.25 mM MgSO4, 124 mM NaCl, […]
25 mM HEPES, 13.3 mM Glucose, 1.25 mM KH2PO4, 1.45 mM CaCl2, 0.5 g/L BSA, supplemented with 1 […]
Dose response curves are performed in parallel with the reference compounds.
For antagonist/NAM test (96 well): 12 µl of cells are mixed with 6 µl of the test compound at increasing concentrations and then incubated 10 min. Thereafter 6 µl of the mix of the forskolin and reference agonist is added at a final concentration corresponding to the historical EC80. The plates are then incubated for 30 min at room temperature. After addition of the lysis buffer and 1 hour incubation, cAMP concentrations are estimated, according to the manufacturer specification, with the HTRF kit. […]

Row | inhibition at 10 µM [1] [%] | % inhibition at maximal concentration [2] [%] | IC50 [2] [µM] | Inhibition (%) ([1]; 10 μM compound) | SMILES
1 | 26.5 ± 11.8 | 99.62 | 3.74 | – | Cn1c(-c2ccccc2Cl)nc2ccc(-c3ccccc3)cc2c1=O [ALX-065, 2-(2-chlorophenyl)-3-methyl-6-phenylquinazolin-4(3H)-one]
2 | 30.8 ± 6.44 | 105.21 | 5.6 | 30.8 ± 6.44 | COc1cccc(-c2ccc3nc(-c4ccccc4Cl)n(C)c(=O)c3c2)c1OC [ALX-171, 2-(2-chlorophenyl)-6-(2,3-dimethoxyphenyl)-3-methylquinazolin-4(3H)-one]

Row | SMILES | inhibition at 10 µM [1] [%] | % inhibition at maximal concentration [2] [%] | IC50 [2] [µM] | Inhibition (%) ([1]; 10 μM compound)
3 | CCc1nc2c(o1)CC(c1ccc(C)cc1C)CC2=O (stereo not shown) [ADX71743, reference compound] | 42.6 | 62.42 | 0.43 | –
